In experiment [1] the test system is Candida albicans. Briefly: Induction of membrane permeabilization in Candida albicans ATCC 10231 assessed as membrane disruption at 4 times MIC after 1 hr by propidium iodide staining based fluorescence microscopy. Format: functional, organism-based.
Experiment [2] concerns Cryptococcus neoformans. Briefly: Antifungal activity against Cryptococcus neoformans isolate CN2 measured after 48 hrs by CLSI M27-A3 protocol based method. The settings on record: Cryptococcus neoformans, isolate CN2, 48 h; read-out: MIC. Format: functional.
For experiment [3], the system named is Candida albicans. Briefly: Antifungal activity against Candida albicans ATCC 10231 measured after 48 hrs by CLSI M27-A3 protocol based method. Format: functional. The settings on record: ATCC 10231, 48 h.
Experiment [4] concerns Candida albicans. As to the kind of experiment: Antifungal activity against Candida albicans ATCC 64124 measured after 48 hrs by CLSI M27-A3 protocol based method. The settings on record: Candida albicans, ATCC 64124, 48 h; read-out: MIC. It is filed as functional.
In experiment [5] the test system is Candida albicans. As to the kind of experiment: Antifungal activity against fluconazole/ITC-susceptible Candida albicans ATCC MYA-2876 measured after 48 hrs by CLSI M27-A3 protocol based method. Format: functional. The note with it: Candida albicans, ATCC MYA-2876, 48 h.
In experiment [6] the test system is Candida albicans. As to the kind of experiment: Antifungal activity against fluconazole/ITC-resistant Candida albicans ATCC 90819 measured after 48 hrs by CLSI M27-A3 protocol based method. It is filed as functional. The settings on record: Candida albicans, ATCC 90819, 48 h; read-out: MIC.
Experiment [7] relates to Candida albicans. As to the kind of experiment: Antifungal activity against fluconazole/ITC-susceptible Candida albicans ATCC MYA-2310 measured after 48 hrs by CLSI M27-A3 protocol based method. It is filed as functional. The note with it: Candida albicans, ATCC MYA-2310, 48 h; read-out: MIC.
In experiment [8] the test system is Candida albicans. Briefly: Antifungal activity against fluconazole/ITC-resistant Candida albicans ATCC MYA-1237 measured after 48 hrs by CLSI M27-A3 protocol based method. It is filed as functional. The note with it: Candida albicans, ATCC MYA-1237, 48 h; read-out: MIC.
The test system of experiment [9] is Candida albicans. As to the kind of experiment: Antifungal activity against fluconazole/ITC-resistant Candida albicans ATCC MYA-1003 measured after 48 hrs by CLSI M27-A3 protocol based method. Format: functional. The settings on record: Candida albicans, ATCC MYA-1003, 48 h; read-out: MIC.
For experiment [10], the system named is Nakaseomyces glabratus. Briefly: Antifungal activity against Candida glabrata ATCC 2001 measured after 48 hrs by CLSI M27-A3 protocol based method. It is filed as functional, CBS 138. The settings on record: Nakaseomyces glabratus, CBS 138, 48 h; read-out: MIC.
Another experiment deals with Pichia kudriavzevii. Briefly: Antifungal activity against Candida krusei ATCC 6258 measured after 48 hrs by CLSI M27-A3 protocol based method. The note with it: Pichia kudriavzevii, ATCC 6258, 48 h. It is filed as functional.
Experiment [11] deals with Candida parapsilosis. As to the kind of experiment: Antifungal activity against Candida parapsilosis ATCC 22019 measured after 48 hrs by CLSI M27-A3 protocol based method. Format: functional. The settings on record: Lodderomyces parapsilosis, ATCC 22019, 48 h.
The test system of another experiment is Aspergillus nidulans. Briefly: Antifungal activity against Aspergillus nidulans ATCC 38163 measured after 48 hrs by CLSI M38-A2 protocol based method. It is filed as functional. The settings on record: ATCC 38163, 48 h.
Another experiment concerns Aspergillus flavus. As to the kind of experiment: Antifungal activity against Aspergillus flavus ATCC MYA-3631 measured after 48 hrs by CLSI M38-A2 protocol based method. It is filed as functional. The note with it: ATCC MYA-3631, 48 h.
A further experiment relates to Aspergillus terreus. As to the kind of experiment: Antifungal activity against Aspergillus terreus ATCC MYA-3633 measured after 48 hrs by CLSI M38-A2 protocol based method. The note with it: ATCC MYA-3633, 48 h. It is filed as functional.
Experiment [12] relates to Nakaseomyces glabratus. As to the kind of experiment: Antifungal activity against Candida glabrata isolate CG1 measured after 48 hrs by CLSI M27-A3 protocol based method. Format: functional. The settings on record: Nakaseomyces glabratus, 48 h; read-out: MIC.
The test system of experiment [13] is Nakaseomyces glabratus. As to the kind of experiment: Antifungal activity against Candida glabrata isolate CG2 measured after 48 hrs by CLSI M27-A3 protocol based method. Format: functional. The note with it: Nakaseomyces glabratus, isolate CG2, 48 h; read-out: MIC.
Experiment [14] deals with Nakaseomyces glabratus. As to the kind of experiment: Antifungal activity against Candida glabrata isolate CG3 measured after 48 hrs by CLSI M27-A3 protocol based method. It is filed as functional. The note with it: Nakaseomyces glabratus, 48 h; read-out: MIC.
The subject of experiment [15] is Candida parapsilosis. Briefly: Antifungal activity against Candida parapsilosis isolate CP1 measured after 48 hrs by CLSI M27-A3 protocol based method. It is filed as functional. The settings on record: Lodderomyces parapsilosis, isolate CP1, 48 h.
The test system of experiment [16] is Candida parapsilosis. Briefly: Antifungal activity against Candida parapsilosis isolate CP2 measured after 48 hrs by CLSI M27-A3 protocol based method. Format: functional. The note with it: Lodderomyces parapsilosis, isolate CP2, 48 h.
Experiment [17] has as its system Cryptococcus neoformans. As to the kind of experiment: Antifungal activity against Cryptococcus neoformans isolate CN1 measured after 48 hrs by CLSI M27-A3 protocol based method. It is filed as functional. The settings on record: isolate CN1, 48 h.
The test system of experiment [18] is Cryptococcus neoformans. Briefly: Antifungal activity against Cryptococcus neoformans isolate CN3 measured after 48 hrs by CLSI M27-A3 protocol based method. Format: functional. The settings on record: Cryptococcus neoformans, isolate CN3, 48 h; read-out: MIC.
For experiment [19], the system named is Candida parapsilosis. As to the kind of experiment: Antifungal activity against Candida parapsilosis isolate CP3 measured after 48 hrs by CLSI M27-A3 protocol based method. It is filed as functional. The settings on record: Lodderomyces parapsilosis, isolate CP3, 48 h.

Values after ≈ are worked out from the molar mass of the structure shown. Active and inactive are the calls of the source. The rule behind the calls is not given here.

Consider `CCCCCCCCCCCCCCSC[C@H]1O[C@H](O[C@H]2[C@H](O)[C@@H](O[C@H]3O[C@H](CO)[C@@H](O)[C@H](N)[C@H]3O)[C@H](N)C[C@@H]2N)[C@H](N)[C@@H](O)[C@@H]1O`, for which the outcome in the experiment with Candida albicans [1] was Active.
By MIC is commonly meant the lowest concentration found to suppress growth. Consider `CCCCCCNCC(O)(Cn1cncn1)c1ccc(F)cc1F` (centres undefined), for which the MIC was > 92.3 µM in the experiment with Cryptococcus neoformans [2]; 23 µM (≈ 7.78 µg/mL) in the experiment with Candida albicans [3]; > 92.3 µM in the experiment on Candida albicans [4]; 46.1 µM (≈ 15.6 µg/mL) with Candida albicans [5]; 92.3 µM (≈ 31.2 µg/mL) in the experiment with Candida albicans [6]; 92.3 µM (≈ 31.2 µg/mL) with Candida albicans [7]. In addition, the MIC in the experiment on Candida albicans [8] is > 92.3 µM; with Candida albicans [9] it was 92.3 µM (≈ 31.2 µg/mL); with Nakaseomyces glabratus [10], 23 to 46.1 µM (≈ 7.78 to 15.6 µg/mL); in the experiment on Pichia kudriavzevii it was 23 µM (≈ 7.78 µg/mL); against Candida parapsilosis [11], 2.9 µM (≈ 0.981 µg/mL); in the experiment on Aspergillus nidulans, > 92.3 µM. Moreover, the minimal inhibitory concentration (MIC) was > 92.3 µM against Aspergillus flavus; > 92.3 µM with Aspergillus terreus; 92.3 µM (≈ 31.2 µg/mL) with Nakaseomyces glabratus [12]; 23 µM (≈ 7.78 µg/mL) in the experiment with Nakaseomyces glabratus [13]; 92.3 µM (≈ 31.2 µg/mL) in the experiment on Nakaseomyces glabratus [14]; 2.9 µM (≈ 0.981 µg/mL) against Candida parapsilosis [15]. Besides, the MIC against Candida parapsilosis [16] came to 2.9 µM (≈ 0.981 µg/mL); in the experiment with Cryptococcus neoformans [17], 23 µM (≈ 7.78 µg/mL); with Cryptococcus neoformans [18], 92.3 µM (≈ 31.2 µg/mL); against Candida parapsilosis [19], 2.9 µM (≈ 0.981 µg/mL). Moreover, the result in the experiment on Candida albicans [1] was inactive.
